Laboratory results published in the supplement of paper PMC10307832.

Key:
Test in all cases: relative viability (nuclei count vs DMSO), 5 days (fraction); higher = more cells survive
[1] = compound: CC[C@@H]1C(=O)N(C)c2cnc(Nc3ccc(C(=O)NC4CCN(C)CC4)cc3OC)nc2N1C1CCCC1 [BI-2536] + Nc1nc2[nH]cc(CCc3ccc(C(=O)N[C@@H](CCC(=O)O)C(=O)O)cc3)c2c(=O)[nH]1 [Pemetrexed] (partner 0.2 µM)
Procedure, shortened: (§1)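 Medians of duplicate plates are given as relative viability. That measure is the nuclei count in treated wells divided by the count in vehicle wells. Counts were taken on 4× images of lung cancer cell lines in 1536-well plates, 5 days after pin-tool dosing the day after seeding with one drug alone or a fixed anchor-drug dose plus five library-drug doses (not always all listed) in √10 steps.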

[2] = compound: CC1CC(=O)N(C2=CN=C(N=C2N1C3CCCC3)NC4=C(C=C(C=C4)C(=O)NC5CCN(CC5)C)OC)C [NPK76-II-72-1] + COc1cccc2cc(-c3nc([C@H]4CC[C@H](C(=O)O)CC4)n4ncnc(N)c34)[nH]c12 [OSI-027] (partner 0.5 µM)
Procedure, shortened: as §1

[3] = compound: CC[C@@H]1C(=O)N(C)c2cnc(Nc3ccc(C(=O)NC4CCN(C)CC4)cc3OC)nc2N1C1CCCC1 [BI-2536]
Procedure, shortened: (§2)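 Viability was read as treated-well nuclei divided by vehicle-well nuclei, using the median across plates. Lung cancer cell lines in 1536-well plates were kept overnight at 37 °C, pinned with five √10-spaced library-drug doses, and after 5 days were Hoechst-stained, imaged at 4× and counted in MetaXpress. Plates passed only with control CV below 25% and at least one doubling.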

[4] = compound: CC1CC(=O)N(C2=CN=C(N=C2N1C3CCCC3)NC4=C(C=C(C=C4)C(=O)NC5CCN(CC5)C)OC)C [NPK76-II-72-1]
Procedure, shortened: as §2

NCI-H2126
relative viability ([1]; first compound 0.01 µM): 0.747
relative viability ([1]; first compound 0.03162 µM): 0.74
relative viability ([1]; first compound 0.1 µM): 0.369
relative viability ([1]; first compound 0.3162 µM): 0.286
relative viability ([1]; first compound 1 µM): 0.217
relative viability ([2]; first compound 0.01 µM): 0.716
relative viability ([2]; first compound 0.03162 µM): 0.734
relative viability ([2]; first compound 0.1 µM): 0.678
relative viability ([2]; first compound 0.3162 µM): 0.738
relative viability ([2]; first compound 1 µM): 0.796
relative viability ([3]; 0.01 µM): 1.02
relative viability ([3]; 0.03162 µM): 0.991
relative viability ([3]; 0.1 µM): 0.656
relative viability ([3]; 0.3162 µM): 0.314
relative viability ([3]; 1 µM): 0.245
relative viability ([4]; 0.01 µM): 0.966
relative viability ([4]; 0.03162 µM): 1.06
relative viability ([4]; 0.1 µM): 0.999
relative viability ([4]; 0.3162 µM): 0.996
relative viability ([4]; 1 µM): 1.09

NCI-H2170
relative viability ([1]; first compound 0.01 µM): 0.285
relative viability ([1]; first compound 0.03162 µM): 0.254
relative viability ([1]; first compound 0.1 µM): 0.183
relative viability ([1]; first compound 0.3162 µM): 0.161
relative viability ([1]; first compound 1 µM): 0.163
relative viability ([2]; first compound 0.01 µM): 0.73
relative viability ([2]; first compound 0.03162 µM): 0.759
relative viability ([2]; first compound 0.1 µM): 0.716
relative viability ([2]; first compound 0.3162 µM): 0.493
relative viability ([2]; first compound 1 µM): 0.798
relative viability ([3]; 0.01 µM): 0.971
relative viability ([3]; 0.03162 µM): 0.896
relative viability ([3]; 0.1 µM): 0.273
relative viability ([3]; 0.3162 µM): 0.204
relative viability ([3]; 1 µM): 0.204
relative viability ([4]; 0.01 µM): 0.939
relative viability ([4]; 0.03162 µM): 0.977
relative viability ([4]; 0.1 µM): 0.928
relative viability ([4]; 0.3162 µM): 0.71
relative viability ([4]; 1 µM): 1.11

NCI-H2228
relative viability ([1]; first compound 0.01 µM): 0.382
relative viability ([1]; first compound 0.03162 µM): 0.385
relative viability ([1]; first compound 0.1 µM): 0.131
relative viability ([1]; first compound 0.3162 µM): 0.194
relative viability ([1]; first compound 1 µM): 0.14
relative viability ([2]; first compound 0.01 µM): 0.427
relative viability ([2]; first compound 0.03162 µM): 0.615
relative viability ([2]; first compound 0.1 µM): 0.547
relative viability ([2]; first compound 0.3162 µM): 0.55
relative viability ([2]; first compound 1 µM): 0.724
relative viability ([3]; 0.01 µM): 0.972
relative viability ([3]; 0.03162 µM): 0.991
relative viability ([3]; 0.1 µM): 0.279
relative viability ([3]; 0.3162 µM): 0.142
relative viability ([3]; 1 µM): 0.228
relative viability ([4]; 0.01 µM): 0.945
relative viability ([4]; 0.03162 µM): 0.974
relative viability ([4]; 0.1 µM): 1.08
relative viability ([4]; 0.3162 µM): 0.883
relative viability ([4]; 1 µM): 1.06

NCI-H2342
relative viability ([1]; first compound 0.03162 µM): 0.724
relative viability ([1]; first compound 0.1 µM): 0.716
relative viability ([1]; first compound 0.3162 µM): 0.373
relative viability ([1]; first compound 1 µM): 0.42
relative viability ([2]; first compound 0.01 µM): 0.632
relative viability ([2]; first compound 0.03162 µM): 0.572
relative viability ([2]; first compound 0.1 µM): 0.632
relative viability ([2]; first compound 0.3162 µM): 0.435
relative viability ([2]; first compound 1 µM): 0.58
relative viability ([3]; 0.01 µM): 0.818
relative viability ([3]; 0.03162 µM): 0.909
relative viability ([3]; 0.1 µM): 0.865
relative viability ([3]; 0.3162 µM): 0.418
relative viability ([3]; 1 µM): 0.393
relative viability ([4]; 0.01 µM): 1.02
relative viability ([4]; 0.03162 µM): 1.08
relative viability ([4]; 0.1 µM): 0.954
relative viability ([4]; 0.3162 µM): 0.823
relative viability ([4]; 1 µM): 1.04

NCI-H2347
relative viability ([1]; first compound 0.01 µM): 0.437
relative viability ([1]; first compound 0.03162 µM): 0.437
relative viability ([1]; first compound 0.1 µM): 0.38
relative viability ([1]; first compound 0.3162 µM): 0.365
relative viability ([1]; first compound 1 µM): 0.344
relative viability ([2]; first compound 0.01 µM): 0.407
relative viability ([2]; first compound 0.03162 µM): 0.502
relative viability ([2]; first compound 0.1 µM): 0.466
relative viability ([2]; first compound 0.3162 µM): 0.366
relative viability ([2]; first compound 1 µM): 0.274
relative viability ([3]; 0.01 µM): 0.942
relative viability ([3]; 0.03162 µM): 1.07
relative viability ([3]; 0.1 µM): 0.941
relative viability ([3]; 0.3162 µM): 0.483
relative viability ([3]; 1 µM): 0.43
relative viability ([4]; 0.01 µM): 0.924
relative viability ([4]; 0.03162 µM): 1.05
relative viability ([4]; 0.1 µM): 0.948
relative viability ([4]; 0.3162 µM): 0.982
relative viability ([4]; 1 µM): 1.05

NCI-H2405
relative viability ([1]; first compound 0.01 µM): 1.07
relative viability ([1]; first compound 0.03162 µM): 0.992
relative viability ([1]; first compound 0.1 µM): 0.375
relative viability ([1]; first compound 0.3162 µM): 0.342
relative viability ([1]; first compound 1 µM): 0.457
relative viability ([2]; first compound 0.01 µM): 0.64
relative viability ([2]; first compound 0.03162 µM): 0.672
relative viability ([2]; first compound 0.1 µM): 0.633
relative viability ([2]; first compound 0.3162 µM): 0.627
relative viability ([2]; first compound 1 µM): 0.67
relative viability ([3]; 0.01 µM): 0.965
relative viability ([3]; 0.03162 µM): 0.918
relative viability ([3]; 0.1 µM): 0.465
relative viability ([3]; 0.3162 µM): 0.279
relative viability ([3]; 1 µM): 0.406
relative viability ([4]; 0.01 µM): 0.986
relative viability ([4]; 0.03162 µM): 0.991
relative viability ([4]; 0.1 µM): 1.03
relative viability ([4]; 0.3162 µM): 1.01
relative viability ([4]; 1 µM): 1.05

NCI-H3122
relative viability ([1]; first compound 0.01 µM): 0.212
relative viability ([1]; first compound 0.03162 µM): 0.171
relative viability ([1]; first compound 0.1 µM): 0.159
relative viability ([1]; first compound 0.3162 µM): 0.129
relative viability ([1]; first compound 1 µM): 0.121
relative viability ([2]; first compound 0.01 µM): 0.856
relative viability ([2]; first compound 0.03162 µM): 0.914
relative viability ([2]; first compound 0.1 µM): 0.929
relative viability ([2]; first compound 0.3162 µM): 0.911
relative viability ([2]; first compound 1 µM): 1.02
relative viability ([3]; 0.01 µM): 0.992
relative viability ([3]; 0.03162 µM): 0.942
relative viability ([3]; 0.1 µM): 0.243
relative viability ([3]; 0.3162 µM): 0.173
relative viability ([3]; 1 µM): 0.145
relative viability ([4]; 0.01 µM): 0.97
relative viability ([4]; 0.03162 µM): 1.01
relative viability ([4]; 0.1 µM): 0.988
relative viability ([4]; 0.3162 µM): 1
relative viability ([4]; 1 µM): 1
